Results: ChEMBL document CHEMBL6153088, “Discovery of 1,4-Disubstituted Cyclohexene Analogues as Selective GPR119 Agonists for the Treatment of Type 2 Diabetes” (J Med Chem, 2025)

What was measured:
[1] = target: T1, Glucose-dependent insulinotropic receptor (Homo sapiens, UniProt Q8TDV5); experiment: Agonist activity at human GPR119 expressed in CHO cells assessed as cAMP level measured after 90 mins by HTRF based assay; format: functional, cell-based
T1 sequence (Q8TDV5 whole entry): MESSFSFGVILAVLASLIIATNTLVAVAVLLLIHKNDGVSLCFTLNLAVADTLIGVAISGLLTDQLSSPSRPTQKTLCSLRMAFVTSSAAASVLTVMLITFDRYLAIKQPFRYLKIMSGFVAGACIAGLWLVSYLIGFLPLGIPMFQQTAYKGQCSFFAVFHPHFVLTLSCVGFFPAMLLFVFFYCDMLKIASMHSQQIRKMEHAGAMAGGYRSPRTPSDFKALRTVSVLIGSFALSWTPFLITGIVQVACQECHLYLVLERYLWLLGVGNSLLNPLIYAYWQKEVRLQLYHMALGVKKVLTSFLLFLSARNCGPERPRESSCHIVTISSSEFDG

[2] = test system: Mus musculus; experiment: (§1) Anti-diabetic activity in overnight fasted male C57BL/6J mouse assessed as reduction in blood glucose level by measuring reduction in AUC […] at 20 mg/kg pre-administered with compound for 30 min followed by glucose bolus addition and measured upto 120 min by oral glucose tolerance test relative to control; format: functional; design: scale not given: the % may be the effect or the level left; conditions: time <= 150 min, 2.5 h
[3] = target: T1, Glucose-dependent insulinotropic receptor; experiment: Agonist activity at human GPR119; format: functional
[4] = test system: Mus musculus; experiment: as §1, with “at 10” for “at 20”, “mg/kg once a day” for “mg/kg”; format: functional; design: scale not given: the % may be the effect or the level left; conditions: time <= 150 min, 2.5 h
[5] = test system: Mus musculus; experiment: Anti-diabetic activity in male FATZO mouse assessed as reduction in blood glucose level by measuring reduction in AUC […] at 30 mg/kg pre-administered with compound for 30 min followed by glucose bolus addition and measured upto 120 min by oral glucose tolerance test relative to control; format: functional; design: scale not given: the % may be the effect or the level left; conditions: time <= 150 min, 2.5 h
[6] = test system: Mus musculus; experiment: as §1, with “at 30” for “at 20”; format: functional; design: scale not given: the % may be the effect or the level left; conditions: time <= 150 min, 2.5 h

EC50 [1] [nM] | SMILES | Activity [2] [%] | further results
13 | CC(C)(C)OC(=O)N1CCC(COc2ccc(C3=CCC(C(=O)N4CCOCC4)CC3)cc2)CC1 (stereo unspecified) | 10.2 | –
32 | CCc1cnc(N2CCC(COc3ccc(C4=CC[C@@H](C(=O)N5CCC[C@@H]5CO)CC4)cc3)CC2)nc1 | – | –
26 | CCc1cnc(N2CCC(COc3ccc(C4=CCC(C(=O)N5CC[C@H](O)C5)CC4)cc3)CC2)nc1 (stereo partly specified) | 7.2 | –
43 | CCc1cnc(N2CCC(COc3ccc(C4=CCC(C(=O)N5CC[C@@H](CO)C5)CC4)cc3)CC2)nc1 (stereo partly specified) | 7.6 | –
13 | CCc1cnc(N2CCC(COc3ccc(C4=CCC(C(=O)N5CCOCC5)CC4)cc3)CC2)nc1 (stereo unspecified) | 15.7 | –
10 | CCc1cnc(N2CCC(COc3ccc(C4=CCC(C(=O)N5CCC(F)(F)C5)CC4)cc3)CC2)nc1 (stereo unspecified) | 12.6 | –
– | CCOC(=O)c1ccc(-c2ccc(OCC3CCN(C(=O)OC(C)(C)C)CC3)cc2)cc1 | – | EC50 [3]: 120 nM
– | N[C@@H](CC(=O)N1CCn2c(nnc2C(F)(F)F)C1)Cc1cc(F)c(F)cc1F [SITAGLIPTIN] | – | Activity [4]: 20.5%; Activity [5]: 17.5%; Activity [6]: 22%
– | CCOC(=O)C1CCC(c2ccc(OCC3CCN(C(=O)OC(C)(C)C)CC3)cc2)CC1 (stereo unspecified) | – | EC50 [3]: 370 nM
38 | CCc1cnc(N2CCC(COc3ccc(C4=CCC(C(=O)N5CCC5)CC4)cc3)CC2)nc1 (stereo unspecified) | 14.6 | –
18 | CC(C)c1noc(N2CCC(COc3ccc(C4=CCC(C(=O)N5CCOCC5)CC4)cc3)CC2)n1 (stereo unspecified) | 4.1 | –
41 | CC(C)c1noc(N2CCC(COc3ccc(C4=CCC(C(=O)N5CCC5)CC4)cc3)CC2)n1 (stereo unspecified) | 4.2 | –
34 | CC(C)(C)OC(=O)N1CCC(COc2ccc(C3=CCC(C(=O)NCC(F)F)CC3)cc2)CC1 (stereo unspecified) | 10.6 | –
140 | CC(C)(C)OC(=O)N1CCC(COc2ccc(C3=CCC(C(=O)NCCO)CC3)cc2)CC1 (stereo unspecified) | 6.7 | –
